The values below come from patent publication US20200385371A1 (Propellon Therapeutics Inc., priority 2017, published 2020).

As a reminder, the IC50 is the midpoint of a concentration-inhibition curve. What is called EC50 is the concentration giving half of the maximal effect. As a reminder, the Kd is the free concentration of one partner at which half of the binding sites on the other are occupied at equilibrium, for simple one-to-one binding.

The target in experiment [1] is T1, WDR5 (Homo sapiens, UniProt P61964). Description: Fluorescence Polarization (FP) binding assay. The essentials:
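Buffer was pH 6.5 sodium phosphate (80 mM) with 20 mM KCl and 0.008% Triton X-100; 9-Ala-FAM probe at 20 nM used 0.05 μM WDR5 and 480/540 nm polarization, H3 (1-15) probe at 30 nM used 0.3 μM WDR5 and 485/528 nm. Quadruplicate data were hyperbola-fitted to give Kdisp.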
On the technique in general: In fluorescence polarisation assays a small probe gives low polarisation when free and higher when bound to something large.

Experiment [2] concerns MV4-11 cells. Description: Cell proliferation assay (ATPlite). The settings on record: Homo sapiens, 120 h; MV4-11 cells, five days; read-out: GI MV411 EC50. In kind it is cell-based. The essentials:
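ATPlite luminescence after five days' culture (37° C, 5% CO2) gives viability. Compounds dosed in 10 concentrations up to 10 μM against DMSO; 1,000 cells/well seeded in Alpha-MEM/10% FBS.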

The target of experiment [3] is T1, WDR5. Briefly: Surface Plasmon Resonance (SPR) assay. The format is binding. Also noted: Full length WDR5 with an N-terminal His tag and C-terminal AviTag; His tag (N); made in house; host or cells: E. coli. The settings on record: read-out: SPR Kd. The essentials:
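Full-length biotinylated WDR5 (N-His, C-AviTag, E. coli) captured (~3000 RU) on streptavidin SA chip; Biacore T200. HBS-EP pH 7.4 plus 5% DMSO running buffer, 40 μl/min.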

Regarding `COc1cc(N2CC=C(c3c(F)cc(N4C[C@@H](C)N(C)[C@@H](C)C4)c(NC(=O)c4c[nH]c(=O)cc4C(F)(F)F)c3F)CC2)ncn1` [Example 140, N-(2,4-difluoro-3-(1-(6-methoxypyrimidin-4-yl)-1,2,3,6-tetrahydropyridin-4-yl)-6-((3S,5R)-3,4,5-trimethylpiperazin-1-yl)phenyl)-6-oxo-4-(trifluoromethyl)-1,6-dihydropyridine-3-carboxamide], the IC50 in experiment [1] is 14.5 nM. In addition, the EC50 in experiment [2] came to 30.9 nM. In addition, the Kd in experiment [3] stood at 1.4 nM.

As to `C[C@H]1CN(c2cc(F)c(C3=CCN(c4ccnc(C#N)n4)C3)c(F)c2NC(=O)c2c[nH]c(=O)cc2C(F)(F)F)CCN1C` [Example 107, (S)—N-(3-(1-(2-cyanopyrimidin-4-yl)-2,5-dihydro-1H-pyrrol-3-yl)-6-(3,4-dimethylpiperazin-1-yl)-2,4-difluorophenyl)-6-oxo-4-(trifluoromethyl)-1,6-dihydropyridine-3-carboxamide], the IC50 in experiment [1] is 14.3 nM. Also, the 50% effective concentration (EC50) in experiment [2] stood at 60.1 nM. Further, the Kd in experiment [3] was found to be 2.62 nM.

On to `COc1cc(N2CC=C(c3c(F)cc(N4C[C@@H](C)N(C)[C@@H](C)C4)c(NC(=O)c4c[nH]c(=O)cc4C(F)(F)F)c3F)C2)ncn1` [Example 143, N-(2,4-difluoro-3-(1-(6-methoxypyrimidin-4-yl)-2,5-dihydro-1H-pyrrol-3-yl)-6-((3S,5R)-3,4,5-trimethylpiperazin-1-yl)phenyl)-6-oxo-4-(trifluoromethyl)-1,6-dihydropyridine-3-carboxamide], for which the IC50 in experiment [1] was determined as 14.4 nM. In experiment [2], the EC50 was 17.7 nM. The Kd in experiment [3] came out at 0.92 nM.

With `C[C@@H]1CN(c2cc(F)c(-c3ccc(F)c(C(N)=O)c3)c(F)c2NC(=O)c2c[nH]c(=O)cc2C(F)(F)F)C[C@H](C)N1C` [Example 28, N-(3′-carbamoyl-2,4′,6-trifluoro-4-((3S,5R)-3,4,5-trimethylpiperazin-1-yl)-[1,1′-biphenyl]-3-yl)-6-oxo-4-(trifluoromethyl)-1,6-dihydropyridine-3-carboxamide], the IC50 in experiment [1] is 36.2 nM. For the same compound, the EC50 in experiment [2] was 2870 nM. Further, in experiment [3], the Kd came to 5.01 nM.

As to `C[C@H]1CN(c2cc(F)c(C3=CCN(c4ccnc(C#N)n4)C3)c(F)c2NC(=O)c2c[nH]c(=O)cc2C(F)F)CCN1C` [Example 106, (S)—N-(3-(1-(2-cyanopyrimidin-4-yl)-2,5-dihydro-1H-pyrrol-3-yl)-6-(3,4-dimethylpiperazin-1-yl)-2,4-difluorophenyl)-4-(difluoromethyl)-6-oxo-1,6-dihydropyridine-3-carboxamide], the IC50 in experiment [1] turned out to be 15 nM. Besides, in experiment [2], the EC50 worked out at 27.6 nM. Besides, the Kd in experiment [3] was determined as 0.93 nM.

For `CC(C)[C@H]1CN(c2ncc(-c3c(F)cc(N4C[C@@H](C)N(C)[C@@H](C)C4)c(NC(=O)c4c[nH]c(=O)cc4C(F)(F)F)c3F)cn2)CCO1` [Example 103, N-(2,4-difluoro-3-(2-((S)-2-isopropylmorpholino)pyrimidin-5-yl)-6-((3S,5R)-3,4,5-trimethylpiperazin-1-yl)phenyl)-6-oxo-4-(trifluoromethyl)-1,6-dihydropyridine-3-carboxamide], the half-maximal inhibitory concentration (IC50) in experiment [1] amounted to 17.7 nM. Besides, the EC50 in experiment [2] amounted to 14.7 nM. Besides, the dissociation constant (Kd) in experiment [3] is 5.01 nM.

As for `C[C@@H]1CN(c2nc(-c3c(F)cc(N4CCN(C)[C@@H](C)C4)c(NC(=O)c4c[nH]c(=O)cc4C(F)(F)F)c3F)cs2)C[C@H](C)O1` [Example 131, N-(3-(2-((2S,6R)-2,6-dimethylmorpholino)thiazol-4-yl)-6-((S)-3,4-dimethylpiperazin-1-yl)-2,4-difluorophenyl)-6-oxo-4-(trifluoromethyl)-1,6-dihydropyridine-3-carboxamide], the IC50 in experiment [1] worked out at 16.6 nM. Moreover, the EC50 in experiment [2] was found to be 208 nM. For the same compound, in experiment [3], the Kd is 5.12 nM.

Consider `C[C@H]1CN(c2ncc(-c3c(F)cc(N4CCN(C)[C@@H](C)C4)c(NC(=O)c4cn(C)c(=O)cc4C(F)F)c3F)cn2)C[C@H](C)O1` [Example 160, 4-(Difluoromethyl)-N-(3-(2-((2S,6S)-2,6-dimethylmorpholino)pyrimidin-5-yl)-6-((S)-3,4-dimethylpiperazin-1-yl)-2,4-difluorophenyl)-1-methyl-6-oxo-1,6-dihydropyridine-3-carboxamide], for which the 50% inhibitory concentration (IC50) in experiment [1] is 14 nM. In experiment [2], the EC50 stood at 254 nM. The Kd in experiment [3] amounted to 1.36 nM.

Consider `C[C@@H]1CN(c2cc(F)c(C3=CCN(c4ncc(C#N)s4)CC3)c(F)c2NC(=O)c2c[nH]c(=O)cc2C(F)(F)F)C[C@H](C)N1C` [Example 148, N-(3-(1-(5-cyanothiazol-2-yl)-1,2,3,6-tetrahydropyridin-4-yl)-2,4-difluoro-6-((3S,5R)-3,4,5-trimethylpiperazin-1-yl)phenyl)-6-oxo-4-(trifluoromethyl)-1,6-dihydropyridine-3-carboxamide], for which the IC50 in experiment [1] was 12.9 nM. For the same compound, the EC50 in experiment [2] is 74.9 nM. Also, the dissociation constant (Kd) in experiment [3] amounted to 2.09 nM.

`Cc1nc(C(=O)N2CCC=C(c3c(F)cc(N4C[C@@H](C)N(C)[C@@H](C)C4)c(NC(=O)c4c[nH]c(=O)cc4C(F)(F)F)c3F)C2)cs1` [Example 188, N-(2,4-difluoro-3-(1-(2-methylthiazole-4-carbonyl)-1,2,5,6-tetrahydropyridin-3-yl)-6-((3S,5R)-3,4,5-trimethylpiperazin-1-yl)phenyl)-6-oxo-4-(trifluoromethyl)-1,6-dihydropyridine-3-carboxamide]: the IC50 in experiment [1] turned out to be 13.1 nM. The concentration giving a half-maximal response (EC50) in experiment [2] came to 468 nM. The Kd in experiment [3] is 2.54 nM.

For `C[C@@H]1CN(c2cc(F)c(-c3cnc(N4C[C@H](C)O[C@@H](C)C4)nc3)c(F)c2NC(=O)c2c[nH]c(=O)cc2C(F)(F)F)C[C@H](C)N1C` [Example 88, N-(3-(2-((2S,6S)-2,6-dimethylmorpholino)pyrimidin-5-yl)-2,4-difluoro-6-((3S,5R)-3,4,5-trimethylpiperazin-1-yl)phenyl)-6-oxo-4-(trifluoromethyl)-1,6-dihydropyridine-3-carboxamide], the IC50 in experiment [1] worked out at 13.8 nM. Besides, the concentration for a half-maximal effect (EC50) in experiment [2] came to 9.55 nM. Also, the Kd in experiment [3] was 2.49 nM.

Turning to `C[C@@H]1CN(c2ncc(-c3c(F)cc(N4C[C@@H](C)N(C)[C@@H](C)C4)c(NC(=O)c4c[nH]c(=O)cc4C(F)(F)F)c3F)cn2)C[C@@H](C)O1` [Example 86, N-(3-(2-((2R,6R)-2,6-dimethylmorpholino)pyrimidin-5-yl)-2,4-difluoro-6-((3S,5R)-3,4,5-trimethylpiperazin-1-yl)phenyl)-6-oxo-4-(trifluoromethyl)-1,6-dihydropyridine-3-carboxamide], the IC50 in experiment [1] stood at 13.1 nM. Further, in experiment [2], the EC50 amounted to 10.5 nM. For the same compound, the Kd in experiment [3] was found to be 0.88 nM.

In the case of `C[C@H]1CN(c2ncc(-c3c(F)cc(N4CCN(C)[C@@H](C)C4)c(NC(=O)c4ccc(F)cc4C(F)F)c3F)cn2)C[C@H](C)O1` [Example 157, 2-(Difluoromethyl)-N-(3-(2-((2S,6S)-2,6-dimethylmorpholino)pyrimidin-5-yl)-6-((S)-3,4-dimethylpiperazin-1-yl)-2,4-difluorophenyl)-4-fluorobenzamide], the IC50 in experiment [1] stood at 16.1 nM. Besides, the concentration giving a half-maximal response (EC50) in experiment [2] is 65.6 nM. For the same compound, the equilibrium dissociation constant (Kd) in experiment [3] worked out at 0.22 nM.

Turning to `C[C@H]1CN(c2cc(F)c(C3=CCN(C(=O)OC4CC(F)(F)C4)CC3)c(F)c2NC(=O)c2c[nH]c(=O)cc2C(F)(F)F)CCN1C` [Example 47, 3,3-Difluorocyclobutyl (S)-4-(4-(3,4-dimethylpiperazin-1-yl)-2,6-difluoro-3-(6-oxo-4-(trifluoromethyl)-1,6-dihydropyridine-3-carboxamido)phenyl)-3,6-dihydropyridine-1(2H)-carboxylate], the 50% inhibitory concentration (IC50) in experiment [1] was found to be 17.5 nM. Further, the EC50 in experiment [2] stood at 63 nM. Further, the Kd in experiment [3] came out at 1.35 nM.

As for `COc1cnc(N2CC=C(c3c(F)cc(N4CCN(C)[C@@H](C)C4)c(NC(=O)c4c[nH]c(=O)cc4C(F)(F)F)c3F)CC2)nc1` [Example 53, (S)—N-(6-(3,4-dimethylpiperazin-1-yl)-2,4-difluoro-3-(1-(5-methoxypyrimidin-2-yl)-1,2,3,6-tetrahydropyridin-4-yl)phenyl)-6-oxo-4-(trifluoromethyl)-1,6-dihydropyridine-3-carboxamide], the IC50 in experiment [1] was 19.5 nM. The EC50 in experiment [2] is 75.8 nM. For the same compound, the Kd in experiment [3] stood at 1.02 nM.

For the compound `C[C@H]1CN(c2cc(F)c(-c3ccc4c(c3)OCO4)c(F)c2NC(=O)c2c[nH]c(=O)cc2C(F)(F)F)CCN1C` [Example 184, (S)—N-(3-(benzo[d][1,3]dioxol-5-yl)-6-(3,4-dimethylpiperazin-1-yl)-2,4-difluorophenyl)-6-oxo-4-(trifluoromethyl)-1,6-dihydropyridine-3-carboxamide], in experiment [1], the IC50 amounted to 25.5 nM. In experiment [2], the EC50 was found to be 90.3 nM. For the same compound, the Kd in experiment [3] is 1.17 nM.

Regarding `COc1cnc(N2CCC=C(c3c(F)cc(N4CCN(C)[C@@H](C)C4)c(NC(=O)c4c[nH]c(=O)cc4C(F)(F)F)c3F)C2)nc1` [Example 52, (S)—N-(6-(3,4-dimethylpiperazin-1-yl)-2,4-difluoro-3-(1-(5-methoxypyrimidin-2-yl)-1,2,5,6-tetrahydropyridin-3-yl)phenyl)-6-oxo-4-(trifluoromethyl)-1,6-dihydropyridine-3-carboxamide], the half-maximal inhibitory concentration (IC50) in experiment [1] is 20.1 nM. The EC50 in experiment [2] was 285 nM. Also, in experiment [3], the Kd is 0.46 nM.
